Measured values reported in patent US7718704B2, “Immunosuppressant compounds and compositions” (IRM LLC, priority 2004, dated 2010).

Experiments:
human EDG-1 = molecular target: T1, human EDG-1 (Homo sapiens, UniProt P21453); test: EDG-1 (S1P1) GTP [γ-35S] binding assay (SPA); type: biochemical; conditions: membranes of CHO cells expressing human EDG-1
T1 construct: c-myc (N); expressed in transfected cells; host or cells: CHO cell clones (membrane preparation)
Description: (§1) A. In vitro: A scintillation proximity assay (SPA) for measuring GTP [γ-^35S]binding to membranes prepared from CHO cells expressing human EDG/S1P receptors.
EDG-1 (S1P1) GTP [γ-^35S] binding assay: Membrane protein suspensions are prepared from CHO cell clones stably expressing a human EDG-1 N-terminal c-myc tag. Solution of test compounds ranging from 10 mM to 0.01 nM are prepared in DMSO/50 mM HCl and then diluted into assay buffer (20 mM HEPES, pH7.4, 100 mM NaCl, […], 0.1% fat free BSA). Assay buffer containing 10 mM GDP is mixed with wheat germ agglutinin-coated SPA-beads (1 mg/well) followed by the addition of human EDG-1 membrane protein suspension (10 μg/well) and test compound. The bead/membrane/compound assay components are then mixed for 10-15 minutes on a shaker at room temperature. GTP [γ-^35S] ([…]) and bead/membrane/compound assay mixture are added to individual wells of a 96 well Optiplate™(final volume 225 μl/well), sealed and incubated at room temperature for 110 to 120 minutes under constant shaking. After centrifugation (2000 rpm, 10 minutes) luminescence is measured with a TopCount™ instrument.
EC50 values are obtained by fitting the GTP [γ-^35S] binding curves (raw data) with the dose response curve-fitting tool of ORIGIN V. 6.1. […]

[1] = system: EDG-3, EDG-5, EDG-6 and EDG-8; test: EDG-3, -5, -6 and -8 GTP [γ-35S] binding assays (selectivity versus EDG-1); type: biochemical, human
Description: as §1
Concentrations of EDG receptor expressing membranes range between 13-19 μg per well.

[2] = system: peripheral blood lymphocytes; test: Measurement of circulating lymphocytes (blood lymphocyte depletion); type: in vivo, mice (C57bl/6 male); conditions: Mus musculus, mice, oral gavage, blood collected 6 and 24 hours after administration, read-out: ED50, effective dose required displaying 50% of blood lymphocyte depletion
Description: Measurements of circulating lymphocytes: Compounds are dissolved in DMSO and diluted to obtain a final concentration of 4% DMSO (v/v, final concentration) and then further diluted in a constant volume of Tween80 25%/H2O, v/v. Tween80 25%/H2O (200 μl), 4% DMSO, and FTY720 (10 μg) are included as negative and positive controls, respectively. Mice (C57bl/6 male, 6-10 week-old) are administered 250-300 μL of compound solution orally by gavages under short isoflurane anesthesia.
Blood is collected from the retro-orbital sinus 6 and 24 hours after drug administration under short isoflurane anesthesia. Whole blood samples are subjected to hematology analysis. Peripheral lymphocyte counts are determined using an automated analyzer. Subpopulations of peripheral blood lymphocytes are stained by fluorochrome-conjugated specific antibodies and analyzed using a fluorescent activating cell sorter (Facscalibur). Two mice are used to assess the lymphocyte depletion activity of each compound screened. The result is an ED50, which is defined as the effective dose required displaying 50% of blood lymphocyte depletion.

T1 sequence (P21453 whole entry): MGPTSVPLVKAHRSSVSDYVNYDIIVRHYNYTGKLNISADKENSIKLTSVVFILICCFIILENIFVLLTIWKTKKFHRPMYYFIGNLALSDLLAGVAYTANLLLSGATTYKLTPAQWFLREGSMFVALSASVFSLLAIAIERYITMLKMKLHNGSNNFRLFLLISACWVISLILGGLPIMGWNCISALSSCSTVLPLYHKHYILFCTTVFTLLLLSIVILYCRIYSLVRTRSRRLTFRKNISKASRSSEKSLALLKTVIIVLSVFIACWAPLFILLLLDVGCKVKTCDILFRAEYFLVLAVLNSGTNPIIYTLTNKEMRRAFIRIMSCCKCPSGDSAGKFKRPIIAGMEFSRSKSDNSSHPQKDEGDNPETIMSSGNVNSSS

SMILES	EC50 (human EDG-1)	selectivity for EDG-1 compared to one or more of the other receptors including EDG-3, EDG-5, EDG-6 and EDG-8 [1]	ED50 [2]
O=C(O)CCNCc1ccc2c(c1)CCC/C2=N\OCc1ccc(C2CCCCC2)c(C(F)(F)F)c1 [Example 1, 3-{[5-(4-Cyclohexyl-3-trifluoromethyl-benzyloxyimino)-5,6,7,8-tetrahydro-naphthalen-2-ylmethyl]-amino}-propionic Acid]	0.78 nM	at least 1000 fold	–
O=C(O)C1CN(Cc2ccc3c(c2)CCC/C3=N\OCc2ccc(C3CCCCC3)c(C(F)(F)F)c2)C1 [Example 2, 1-[5-(4-Cyclohexyl-3-trifluoromethyl-benzyloxyimino)-5,6,7,8-tetrahydro-naphthalen-2-ylmethyl]-azetidine-3-carboxylic acid]	–	–	0.2 mg/kg
